Experimental data published in PMC2768106, “Effects of VEGFR-3 phosphorylation inhibitor on lymph node metastasis in an orthotopic diffuse-type gastric carcinoma model” (British Journal of Cancer, 2009).

Molecular target: T1, VEGFR-3 (vascular endothelial growth factor receptor-3, Flt-4) (Homo sapiens, UniProt P35916)
T1 construct: gene FLT4
Assay: cell-free kinase (autophosphorylation) assay; also HUVEC cellular VEGFR-3 phosphorylation, IC50 […]
Format: biochemical

T1 sequence (P35916 25-1363): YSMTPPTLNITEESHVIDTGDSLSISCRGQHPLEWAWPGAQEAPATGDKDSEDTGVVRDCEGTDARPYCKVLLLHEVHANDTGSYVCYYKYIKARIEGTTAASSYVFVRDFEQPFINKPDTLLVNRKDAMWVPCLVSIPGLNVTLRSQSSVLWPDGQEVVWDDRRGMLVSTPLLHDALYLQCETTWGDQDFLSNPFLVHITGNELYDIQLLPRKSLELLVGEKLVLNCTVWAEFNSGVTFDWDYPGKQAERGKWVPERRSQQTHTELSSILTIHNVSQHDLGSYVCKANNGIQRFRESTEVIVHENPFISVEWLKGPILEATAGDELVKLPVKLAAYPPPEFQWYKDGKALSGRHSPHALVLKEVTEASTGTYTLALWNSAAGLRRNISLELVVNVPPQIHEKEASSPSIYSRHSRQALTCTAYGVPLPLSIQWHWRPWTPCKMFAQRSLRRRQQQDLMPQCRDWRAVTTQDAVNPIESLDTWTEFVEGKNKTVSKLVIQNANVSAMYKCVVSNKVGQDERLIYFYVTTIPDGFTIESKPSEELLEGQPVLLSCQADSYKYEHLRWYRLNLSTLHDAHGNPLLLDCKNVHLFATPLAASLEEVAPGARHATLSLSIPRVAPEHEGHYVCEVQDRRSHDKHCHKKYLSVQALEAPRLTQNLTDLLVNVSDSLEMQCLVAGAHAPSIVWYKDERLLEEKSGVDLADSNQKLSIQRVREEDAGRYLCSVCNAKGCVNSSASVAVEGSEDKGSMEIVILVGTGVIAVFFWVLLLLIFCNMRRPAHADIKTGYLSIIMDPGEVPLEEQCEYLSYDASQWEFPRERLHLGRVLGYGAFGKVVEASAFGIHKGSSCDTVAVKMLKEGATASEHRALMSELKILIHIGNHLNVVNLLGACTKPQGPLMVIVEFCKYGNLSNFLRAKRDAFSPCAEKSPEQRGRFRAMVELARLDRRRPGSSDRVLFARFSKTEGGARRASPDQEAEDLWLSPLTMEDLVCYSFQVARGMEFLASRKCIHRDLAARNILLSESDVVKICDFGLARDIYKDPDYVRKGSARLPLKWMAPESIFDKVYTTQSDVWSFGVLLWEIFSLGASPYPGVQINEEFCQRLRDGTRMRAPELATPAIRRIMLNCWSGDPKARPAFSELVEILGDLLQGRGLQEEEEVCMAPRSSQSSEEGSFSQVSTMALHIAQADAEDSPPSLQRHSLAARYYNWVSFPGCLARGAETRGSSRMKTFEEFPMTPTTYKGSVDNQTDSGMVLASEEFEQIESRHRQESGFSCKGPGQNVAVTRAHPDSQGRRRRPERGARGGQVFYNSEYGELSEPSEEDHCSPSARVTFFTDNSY

SMILES: COc1cc2c(Oc3ccc(Nc4ccc(C(C)(C)C)cc4)cc3)ccnc2cc1OCCNCCO [Ki23057]
- IC50: 4.3 nM
